The values below come from patent publication US7572376B2, “Process for producing 1,3-propanediol” (Tate & Lyle Ingredients Americas, Inc., priority 2003, dated 2009).

For series [1] the following is noted: log P=[solute]octanol/[solute]water; cited from earlier work.
Series [2] in a line: solvent screen: PDO mixture with single solvents, distribution between solvent and aqueous phase. The note with it: 30° C.; for Distribution Coefficient Glucose / Distribution Coefficient Glycerol / Distribution Coefficient PDO: conc. in solvent phase / conc. in aqueous phase, aqueous solution 46% w/v PDO, 3.5% glycerol, […] glucose; for Selectivity PDO/Glycerol: distribution coefficient of PDO divided by that of glycerol. Format: physicochemical. The method, then: 10 g of an aqueous solution containing 46% w/v PDO, 3.5% glycerol and 2.9% glucose was heated to 30° C. and the required solvent added in very small quantities until a cloudiness just began to develop. Additional solvent (about 1 g) was added and thoroughly mixed. The mixture was allowed to settle for 10 minutes and then centrifuged to achieve complete phase separation. The two phases (solvent and aqueous) were analyzed.

Molecules are shown by their SMILES.

As for `CC(O)CO` (stereo not shown) [1,2 PDO], the “hydrophobic parameter log P” value in series [1] is given as −1.003.

`OCCCCO` [1,4 butanediol]: in series [1], the “hydrophobic parameter log P” value is recorded as −1.384. For `CC(=O)CC(C)C` [4-Methyl Pentan-2-one], in series [2], the “Distribution Coefficient Glucose” value worked out at 0.001, the “Distribution Coefficient Glycerol” value is recorded as 0.008, the “Distribution Coefficient PDO” value amounted to 0.033 and the “Selectivity PDO/Glycerol” value is reported as 4.03. In the case of `CCCCO` [Butan-1-ol], in series [2], the “phase formation on adding solvent to the aqueous PDO solution” value is “Only one liquid phase formed”. As for `CCCCCCCC/C=C\CCCCCCCC(=O)O` [Oleic acid], in series [2], the “Distribution Coefficient Glucose” value stood at 0.241, the “Distribution Coefficient Glycerol” value stood at 0.002, the “Distribution Coefficient PDO” value came out at 0.009 and the “Selectivity PDO/Glycerol” value came out at 5.23.

On to `CCCCCCCC/C=C\CCCCCCCCO` [Oleyl Alcohol], for which, in series [2], the “Distribution Coefficient Glucose” value is on record as 0.001, the “Distribution Coefficient Glycerol” value came out at 0.024, the “Distribution Coefficient PDO” value is on record as 0.038 and the “Selectivity PDO/Glycerol” value was found to be 1.60. For `CCCCCO` [Pentan-1-ol] the same measures were 0.256, 0.417, 0.609 and 1.46.

For the compound `CCCCCCCCCC` [decane], the “hydrophobic parameter log P” value in series [1] is 5.98.

Turning to `CCCCCCCCCCCCO` [dodecanol], the “hydrophobic parameter log P” value in series [1] was 5.0. On to `CCOC(C)=O` [ethyl acetate], for which the “hydrophobic parameter log P” value in series [1] is reported as 0.68. Consider `OCC(O)CO` [glycerol], for which the “hydrophobic parameter log P” value in series [1] is reported as −2.08.

With `CCCCCCC` [heptane], the “hydrophobic parameter log P” value in series [1] was 4.0. Consider `CCCCCCCO` [heptanol], for which, in series [1], the “hydrophobic parameter log P” value is recorded as 2.4. As to `CC(=O)OC(C)C` [isopropyl acetate], in series [2], the “Distribution Coefficient Glucose” value was found to be 0.001, the “Distribution Coefficient Glycerol” value is reported as 0.005, the “Distribution Coefficient PDO” value is 0.024 and the “Selectivity PDO/Glycerol” value is on record as 5.17. With `CCCCCCCC` [octane], the “hydrophobic parameter log P” value in series [1] is listed as 4.5. Regarding `CCCOC(C)=O` [propyl acetate], the “hydrophobic parameter log P” value in series [1] was 1.2.
